Data taken from BindingDB's records for doi:10.1021/jm980290i (Research Triangle Institute, 1998).

Assay: Inhibition of [35S]GTP-gamma-S, binding in guinea pig caudate stimulated by SNC80 (Opioid receptor delta 1)

C[C@H]1C2CCCC1(c1cccc(O)c1)CCN2CCc1ccccc1 (stereo partly drawn) [3-((R)-9-Methyl-2-phenethyl-2-aza-bicyclo[3.3.1]non-5-yl)-phenol]
Ki: 13 nM
